The subject of data set [1] is MDA-MB231 cells. Put plainly: MTT assay in MDA-MB231 cells. It is filed as cell-based. The source says:
(§1) An in vitro cancer cell two-dimensional culture model was used for this study using 3-(4,5-dimethylthiazole-2-yl)-2,5-diphenyltetrazolium bromide (MTT) assay.[19]
(§2) The cell viability of PPPs was investigated using 3-(4,5-dimethylthiazole-2-yl)-2,5-diphenyltetrazolium bromide (MTT) reduction assay in the presence of 10% fetal bovine serum in antibiotic free media. The yellow tetrazolium salt (MTT) is modified by mitochondrial dehydrogenases to its purple formazan derivative (MTT-formazan) with maximum absorbance at 560–570 nm. […] Experiment was performed in 96-well plates (Cellstar, Germany) growing 10 000 cells (MCF-7, MDA-MB231, and MCF-10A) per well for 24 h before treatments. Experiments were performed for various concentrations of PPPs ranging from 10^5 to 10^0 nM and compared with Taxol as positive control ranging from 10^2 to 10^–3 nM, as described in particular experiment. Cells were incubated for 48 h before performing the MTT assay. At the end of the incubation period, cells were treated with MTT (20 μL, 5 mg/mL) per well and further incubated for 4 h. At the end of the incubation, the entire medium was removed from the wells and 200 μL of dimethyl sulfoxide (DMSO) was added to dissolve blue-colored formazan crystals produced by mitochondrial respirations. The percentage cell viability was obtained by calculating absorbance values and calculated using the formula %viability = {[A630(treated cells) – (background)]/[A630(untreated cells) – background]} × 100.
(Formazan colour is commonly taken as a measure of viable cells.)

Data set [2] deals with MCF-7 cells. Briefly: MTT assay in MCF-7 cells. It is filed as cell-based. As to conditions: for viability at 10 µM: read-out: viable cells; for IC50: MCF-7, MTT.
Excerpt: as §1, §2

In data set [3] the test system is human melanoma C32 cells. Briefly: MTT assay in C32 cells. The data set is classed as cell-based. Conditions: 48 h.
Excerpt: as §1, §2

Data set [4] has as its system MCF-10A cells. Briefly: MTT assay in noncancerous MCF-10A cells. It is filed as cell-based, human. As to conditions: 10 μM, 48 h. Here is the method:
Effectivity of anticancer drugs not only depends on cancer inhibition property but minimum effect to noncancerous normal cells. A representative study was performed on MCF-10A cells of noncancerous nature and human breast origin. […] It indicates the selectivity of PPPs toward cancer cells, presumably due to higher variation in tubulin polymerization processes.
as §2

The subject of data set [5] is MCF-7 cells. Put plainly: Cell growth density study (bright field images). Conditions: MCF-7, 1 μM. The data set is classed as cell-based.
For data set [6], the system named is tubulin. Briefly: SDS-PAGE of PPP-tubulin mixtures, band intensity of polymerized tubulin (FIJI). As to conditions: Coomassie stain, among all PPP–tubulin mixtures. It is filed as biochemical. Here is the method: With this promising result, we further focused on confirming the polymerization of microtubules. PPP–tubulin mixtures were collected from the abovementioned assay, and a sodium dodecyl sulfate polyacrylamide gel electrophoresis (SDS-PAGE) was performed to separate both tubulin as well as polymerized tubulin from the mixture. […] Two distinct bands were obtained, one in the region of 40–55 kDa, which is consistent with the molecular weight of α-, β-tubulin,[16] and other in the region of 130 kDa. This is presumably a result of tubulin polymerization. A semiquantitative analysis of the polymerized tubulin bands was performed using FIJI[17] to calculate the band intensities, as shown in Figure 2b. Fold change of band intensities was further calculated with respect to PPP5–tubulin mixture (Figure 2c).  Figure 2 (a) Coomassie-stained gel lanes for tubulin–dye mixtures, showing two migrating populations, polymerized tubulin (∼130 kDa MW), and α-, β-tubulin (∼50 kDa MW). A representative molecular weight standard lane is also shown across the sample lanes for comparison.

Data set [7] has as its system tubulin. Put plainly: In vitro microtubule polymerization assay (fluorescence). The data set is classed as biochemical. The arrangement: dose or concentration left out as unconfirmed. Conditions: 37 °C, 1.5 h, λex 350 nm, 430 nm. The method, then: To gather further insight into the molecular mechanism of action of PPPs, an in vitro cytoskeleton assay was carried out to investigate the effect of these agents on microtubule polymerization (Figure 1). In this protocol, 85 μL of 10 mg/mL tubulin stock was incubated with tubulin glycerol buffer for 1.5 h at 37 °C in the presence of various PPPs at a fixed concentration (20 mM). Following this, the degree of tubulin polymerization was evaluated by observing their fluorescence profile with time.
The content of polymerized microtubules was monitored by measuring fluorescence intensity at 430 nm (λex = 350 nm) every 7 s for 1.5 h. Paclitaxel (PTXL), a well-known microtubule stabilizer, was added to the assay as a positive control, whereas the tubulin glycerol buffer acted as a negative control. […] This implies that addition of PPP1–7 into the assay led to a stabilization of microtubule polymerization. […] Further inspection to correlate between the obtained trend in tubulin polymerization and modifications attempted at the N-1 and C-3 positions yielded interesting observations. […]
Unless otherwise mentioned, the reagents and chemicals were purchased from Sigma-Aldrich (St. Louis, MO) and used without any purification. […] High-resolution mass spectra (HRMS) were recorded on a quad time-of-flight electrospray ionization (ESI)-MS instrument.

[8] abbreviates: Homo sapiens, MCF7, MCF-7, 10 μM, 48 h.

“Also recorded” adds a separate entry of the source.

Take `Cc1cc(-c2ccc3ccc4cccc5ccc2c3c45)n(-c2ccc(-c3ccccc3)cc2)n1` [PPP2, 1-([1,1′-Biphenyl]-4-yl)-3-methyl-5-(pyren-1-yl)-1H-pyrazole]: the IC50 in data set [1] (Homo sapiens, MDA-MB-231, 48 h) was 15 ± 5 µM; in data set [2] (Homo sapiens, MCF7, 48 h), 34 ± 4 µM; in data set [3] (Homo sapiens), more than 100 µM. Besides, the viability at 10 µM in data set [2] (setting [8]) was 45 ± 3%.
Consider `c1ccc(-c2cc(-c3ccc4ccc5cccc6ccc3c4c56)n(-c3ccccc3)n2)cc1` [PPP4, 1,3-Diphenyl-5-(pyren-1-yl)-1H-pyrazole], for which the IC50 came out at 0.5 ± 0.2 µM in data set [1] (Homo sapiens, MDA-MB-231, 48 h); 1 ± 0.5 µM in data set [2] (Homo sapiens, MCF7, 48 h); 5 ± 2 µM in data set [3] (Homo sapiens). In addition, the “cell death in noncancerous cells” value in data set [4] is reported as “did not result in any significant cell death”. The viability at 10 µM in data set [2] (setting [8]) was 30 ± 3%. The “loss in cell growth density” value in data set [5] is “maximum loss”.
As for `Cc1cc(-c2ccc3ccc4cccc5ccc2c3c45)[nH]n1` [PPP6, 3-Methyl-5-(pyren-1-yl)-1H-pyrazole], the IC50 was more than 100 µM in data set [1] (Homo sapiens, MDA-MB-231, 48 h); 43 ± 5 µM in data set [2] (Homo sapiens, MCF7, 48 h); more than 100 µM in data set [3] (Homo sapiens). Moreover, the viability at 10 µM in data set [2] (setting [8]) was found to be 55 ± 5%.
On to `O=C(O)c1cc(-c2ccc3ccc4cccc5ccc2c3c45)n(-c2ccccc2)n1` [PPP7, 1-Phenyl-5-(pyren-1-yl)-1H-pyrazole-3-carboxylic Acid], for which the IC50 in data set [1] (Homo sapiens, MDA-MB-231, 48 h) was 10 ± 2 µM; in data set [2] (Homo sapiens, MCF7, 48 h) it was 8 ± 2 µM; in data set [3] (Homo sapiens), 14 ± 2 µM. Further, the “cell death in noncancerous cells” value in data set [4] is reported as “did not result in any significant cell death”. The viability at 10 µM in data set [2] (setting [8]) was determined as 50 ± 5%.
As for “1-(Benzo[b]thiophen-2-yl)-3-methyl-5-(pyren-1-yl)-1H-pyrazole [PPP3]”, the IC50 in data set [1] (48 h), in data set [2] (48 h) and in data set [3] was more than 100 µM each time. This molecule showed a viable cells in data set [2] (MCF-7, 10 μM, 48 h) of 52 ± 5%.
In the case of `Cc1cc(-c2ccc3ccc4cccc5ccc2c3c45)n(-c2ccccc2)n1` [PPP1, 3-Methyl-1-phenyl-5-(pyren-1-yl)-1H-pyrazole], the IC50 in data set [1] (Homo sapiens, MDA-MB-231, 48 h) is more than 100 µM; in data set [2] (Homo sapiens, MCF7, 48 h), 60 ± 10 µM; in data set [3] (Homo sapiens), more than 100 µM. For the same molecule, in data set [4], the “cell death in noncancerous cells” value is “did not result in any significant cell death”. In data set [2] (setting [8]), the viability at 10 µM was determined as 50 ± 5%.
Turning to `c1ccc(-c2ccc(-n3nc(-c4ccccc4)cc3-c3ccc4ccc5cccc6ccc3c4c56)cc2)cc1` [PPP5, 1-([1,1′-Biphenyl]-4-yl)-3-phenyl-5-(pyren-1-yl)-1H-pyrazole], the IC50 in data set [1] (Homo sapiens, MDA-MB-231, 48 h) was more than 100 µM; in data set [2] (Homo sapiens, MCF7, 48 h), more than 100 µM; in data set [3] (Homo sapiens), more than 100 µM. For the same molecule, in data set [6], the “band intensity of polymerized tubulin (∼130 kDa)” value was “least”. In data set [2] (setting [8]), the viability at 10 µM is 70 ± 10%. Moreover, the “effect on microtubule polymerization (fluorescence intensity with time)” value in data set [7] is recorded as “inhibits microtubule formation; also recorded: inhibition of microtubule polymerization”.
As to `CC(=O)O[C@H]1C(=O)[C@@]2(C)[C@H]([C@H](OC(=O)c3ccccc3)[C@]3(O)C[C@H](OC(=O)[C@H](O)[C@@H](NC(=O)c4ccccc4)c4ccccc4)C(C)=C1C3(C)C)[C@]1(OC(C)=O)CO[C@@H]1C[C@@H]2O` [Taxol, Paclitaxel, reference compound], in data set [2] (MCF-7, positive control, Figure 4b), the cell growth level is on record as 42 ± 10%. Besides, the “effect on microtubule polymerization (fluorescence intensity with time)” value in data set [7] (listed as PTXL) is recorded as “increase in relative fluorescence intensity; also recorded: stabilizing the tubulin polymerization reaction”.

By IC50 is commonly meant the concentration at which inhibition is half-maximal.
